The subject of one data set is wild-type mice. As to the kind of experiment: PND15 wild-type mice tolerability study: clinical signs, wire hang, NCV, histology. The class given is in vivo, mouse. Here is the method:
Animals were euthanized with CO2 followed by cardiac puncture. Blood was collected via cardiac puncture and split for blood chemistry and hematology.
Beginning on the 2nd week of treatment mice were trained weekly for two weeks. Mice are placed on a wire grid, which is shaken to increase wire grabbing, and then immediately turned over. Mice are timed for their ability to hang from the inverted grid for 1 min. Three trials are performed, up to 1 min each, with a 30 s recovery period between trials. After training, mice were tested weekly and times recorded. The test was done with the grid held 10–12 in. over a box of clean shavings.
Brains were collected after removal of the calvarium, weighted, and halved following the midline. The brain was sectioned in the mid-sagittal plane with half placed in 10% NBF. One sciatic nerve and other organs [heart, lung, liver, spleen, kidney, adrenal glands, stomach, small intestine, large intestine, spinal cord (cervical, thoracic, lumbar), skin, testes, and lymph nodes] were also collected and fixed in 10% NBF. Sections of sciatic nerve were also fixed in 2% PFA, 2% glutaraldehyde, embedded, sectioned and stained with Toluidine blue before scanning. Images were analyzed to determine the G-ratio in the […].
Mice were anesthetized with isoflurane and placed on a thermostatically controlled heating pad to maintain body temperature. The recording electrode was inserted into the plantar muscles and a reference electrode was placed in the skin between toes. A pair of subcutaneous stimulating electrodes were placed distally on both sides of the ankle to stimulate the lateral plantar nerve. For proximal stimulation, the electrodes are moved to the level of the sciatic notch, to the depth of the sciatic nerve. […] Six distally-produced CMAPs were recorded and stored. The procedure was repeated using the proximal electrode pair, and current was increased until a CMAP that matches that produced by distal stimulation was evident. Six proximally-produced CMAPs were recorded and stored. The distance between the sites of stimulation was measured. NCV was later calculated using the two latencies and conduction distance. The H wave was recorded during the recording of the distally stimulated CMAPs.

Data set [1] deals with T1, Recombinant human glucosylceramidase (GBA1) (Homo sapiens, UniProt P04062).
T1 construct: purchased R&D Systems
T1 sequence (P04062 40-536): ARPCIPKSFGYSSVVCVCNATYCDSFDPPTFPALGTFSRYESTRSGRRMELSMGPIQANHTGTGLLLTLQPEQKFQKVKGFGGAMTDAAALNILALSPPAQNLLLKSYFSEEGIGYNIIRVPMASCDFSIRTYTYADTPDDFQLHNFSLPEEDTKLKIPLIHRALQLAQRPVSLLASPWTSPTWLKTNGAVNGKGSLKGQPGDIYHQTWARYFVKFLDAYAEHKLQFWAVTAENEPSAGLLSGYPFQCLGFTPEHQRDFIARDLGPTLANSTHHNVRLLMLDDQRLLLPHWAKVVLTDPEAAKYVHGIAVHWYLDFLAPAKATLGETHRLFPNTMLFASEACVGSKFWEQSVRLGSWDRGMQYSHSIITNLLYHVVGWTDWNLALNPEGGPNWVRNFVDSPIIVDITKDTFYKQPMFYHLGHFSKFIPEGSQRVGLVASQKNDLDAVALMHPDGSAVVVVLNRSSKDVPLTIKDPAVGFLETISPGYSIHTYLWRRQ
As to the kind of experiment: Beta-glucocerebrosidase assay. The class given is biochemical.

The next data set deals with T2, CB1 receptor (Homo sapiens, UniProt P21554).
T2 construct: purchased Eurofin Cerep ITEM G012
T2 sequence (P21554 whole entry): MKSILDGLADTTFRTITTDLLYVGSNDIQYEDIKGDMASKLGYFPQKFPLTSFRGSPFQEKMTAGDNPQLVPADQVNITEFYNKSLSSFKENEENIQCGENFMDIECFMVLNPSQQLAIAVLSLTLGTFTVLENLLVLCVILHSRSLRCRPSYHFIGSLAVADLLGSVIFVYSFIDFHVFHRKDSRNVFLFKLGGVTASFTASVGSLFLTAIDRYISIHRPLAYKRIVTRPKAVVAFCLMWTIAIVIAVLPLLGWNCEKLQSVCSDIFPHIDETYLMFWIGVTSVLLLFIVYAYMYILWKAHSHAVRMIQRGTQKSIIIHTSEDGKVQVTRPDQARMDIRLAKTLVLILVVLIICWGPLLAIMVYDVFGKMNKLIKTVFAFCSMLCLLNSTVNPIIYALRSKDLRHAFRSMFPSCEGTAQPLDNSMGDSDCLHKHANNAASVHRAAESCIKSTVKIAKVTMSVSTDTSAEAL
Put plainly: CB1R activity (Eurofin Cerep). The class given is cell-based. Here is the method:
CB1R activity was evaluated at Eurofin Cerep, Le Bois l'Evêque, France ITEM […].

For data set [2], the target named is T3, Recombinant human galactosylceramidase (GALC) (Homo sapiens, UniProt P54803).
T3 construct: purchased R&D Systems
T3 sequence (P54803 43-685): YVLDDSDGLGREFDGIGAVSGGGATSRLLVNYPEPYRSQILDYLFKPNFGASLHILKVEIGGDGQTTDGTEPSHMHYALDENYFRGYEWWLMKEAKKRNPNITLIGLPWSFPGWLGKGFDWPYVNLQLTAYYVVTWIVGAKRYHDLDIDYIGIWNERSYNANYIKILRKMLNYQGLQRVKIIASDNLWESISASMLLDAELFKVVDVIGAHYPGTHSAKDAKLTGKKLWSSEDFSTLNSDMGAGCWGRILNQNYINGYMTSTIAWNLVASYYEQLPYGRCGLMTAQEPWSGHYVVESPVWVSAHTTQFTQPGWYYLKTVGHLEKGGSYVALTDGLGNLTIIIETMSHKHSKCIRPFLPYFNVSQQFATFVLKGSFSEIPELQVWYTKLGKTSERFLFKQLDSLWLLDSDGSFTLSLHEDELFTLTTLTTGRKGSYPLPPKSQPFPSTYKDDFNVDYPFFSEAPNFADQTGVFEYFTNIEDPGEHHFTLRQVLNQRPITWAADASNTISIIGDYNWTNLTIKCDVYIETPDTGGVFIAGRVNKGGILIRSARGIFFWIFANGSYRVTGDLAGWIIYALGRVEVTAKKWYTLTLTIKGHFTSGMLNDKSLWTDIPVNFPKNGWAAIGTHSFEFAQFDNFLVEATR
Put plainly: Galactosylceramidase assay. The class given is biochemical. An excerpt: Recombinant human galactosylceramidase (R&D Systems) activity was monitored using the artificial fluorescent substrate 4-methylumbelliferyl-β-D-galactopyranoside (Sigma) using the assay conditions described on the enzyme product datasheet.

The mark [3] stands for this setting: wild-type mice, chronic, 2.3 and 5.4 mg/kg.

The structures appear in SMILES notation. Read-outs that look alike come from different tables or passages of the source. Some results are limits rather than exact numbers.

For `C[C@H]1N(c2ccc(Br)cc2)C(=O)N(c2ccc(Br)cc2)C1(O)c1cccc(OC(F)(F)F)c1` (stereo partly drawn) [S202], the testes histopathology entry with wild-type mice (wild-type mice treated from PND15 to PND70) is reported as “germ cell exfoliation with decreased germinal epithelial layers”. In the data set on wild-type mice (wild-type mice, IP three times per week from PND15, 2.3 mg/kg and 5.4 mg/kg), the “longer-term (8 week) tolerability” value is “well tolerated with no mortality, change in weight, or grossly abnormal clinical signs”. Also, the “brain and spinal cord histology (H&E, luxol fast blue/PAS)” value in the data set with wild-type mice (wild-type mice, chronic treatment from PND15) was “widespread vacuolation”. Also, the “sciatic nerve conduction velocity (NCV)” value in the data set with wild-type mice (setting [3]) was “significant and dose-dependent reduction”. Also, in the data set on wild-type mice (setting [3]), the wire hang test entry is on record as “impaired performance on the wire hang test”. Besides, the gait entry in the data set on wild-type mice (wild-type mice, chronic, 2.3 and 5.4 mg/kg, some mice) is “mild gait abnormality”. In addition, the IC50 was over 50 µM in data set [1]; 2900 nM on CB1 receptor (antagonist mode, read-out: CB1R antagonist IC50); 2100 nM at CB1 receptor (inverse agonist mode, read-out: CB1R inverse agonist IC50); 3000 nM on CB1 receptor (read-out: CB1 receptor IC50); over 50 µM in data set [2]. At CB1 receptor (S202 relative to S221), the “potency as a CB1 inverse agonist, change through optimization of S221” value is “reduced tenfold”.

Values taken from PMC8280112, “Substrate reduction therapy for Krabbe disease and metachromatic leukodystrophy using a novel ceramide galactosyltransferase inhibitor” (Scientific Reports, 2021).
